Where “and” joins values, the source holds several entries; their conditions need not be identical. Identical values can stand only once. Like-named read-outs stand apart in the source and are kept apart here.
What was measured:
[1] = molecular target: T1, Rat2 fibroblasts stably transformed with v-Src/Hu Lck fusion gene (Homo sapiens, UniProt P06239, cells depend on it, form not given); assay: Anchorage independent Lck-transformed fibroblast proliferation assay; format: cell-based, rat
T1 construct: Candidates are e.g. Schmidt-Ruppin A (P00524) or Prague C (P00526); The human Lck catalytic domain stands in place of the v-Src catalytic domain
Description: Anchorage Independent Lck-Transformed Fibroblast Proliferation Assay
Rat2 fibroblasts stably transformed with a plasmid containing a CMV promotor controlled v-Src/Hu Lck fusion gene in which the catalytic domain of human Lck was inserted in place of the v-Src catalytic domain in the v-Src gene are used for the measurement of src dependent suspension growth. Ultra-low cluster plates (Costar # 3474) are seeded with 10,000 cells per well on Day 1. Compound is added in serial two-fold dilutions from 10 micromolar to 0.009 micromolar on Day 2 and MTS reagent (Promega) is added on Day 5 (100 microliters of MTS/medium mix+100 microliters of medium already on the cells and the absorbance is measured at 490 nm. The results are analyzed as follows to yield an IC50 for proliferation (micromolar units) as follow: % inhibition=(Abs490 nm sample−blank)/(Abs490 nm no cmpd control−blank)×100%. The results obtained for representative compounds of this invention are listed in Table 2. Multiple entries for a given compound indicate that it was tested multiple times.

[2] = system: Rat2 fibroblasts stably transformed with v-Src/Hu c-Src fusion gene; assay: Anchorage independent Src-transformed fibroblast proliferation assay; format: cell-based, rat
Description: Anchorage Independent Src-Transformed Fibroblast Proliferation Assay Rat2 fibroblasts stably transformed with a plasmid containing a CMV promotor controlled v-Src/Hu c-Src fusion gene in which the catalytic domain of human c-Src was inserted in place of the v-Src catalytic domain in the v-Src gene are used for the measurement of src dependent suspension growth. […] Multiple entries for a given compound indicate that it was tested multiple times.

[3] = Table 2, suspension growth, MTS readout Day 5, read-out: Lck cells IC50
[4] = Rattus norvegicus, Rat2, 120 h, Table 1, suspension growth, MTS readout Day 5, read-out: Src cells IC50
[5] = Table 1, suspension growth, MTS readout Day 5, read-out: Src cells IC50
[6] = Table 3, read-out: Lck Cells IC50
[7] = Rattus norvegicus, Rat2, Table 3, read-out: Src Cells IC50 μM or % inhib at 10 μM (IC50 values)
[8] = Table 3, read-out: Src Cells IC50 μM or % inhib at 10 μM (IC50 values)

T1 sequence (P06239 whole entry, change not shown, the tested form may be a part): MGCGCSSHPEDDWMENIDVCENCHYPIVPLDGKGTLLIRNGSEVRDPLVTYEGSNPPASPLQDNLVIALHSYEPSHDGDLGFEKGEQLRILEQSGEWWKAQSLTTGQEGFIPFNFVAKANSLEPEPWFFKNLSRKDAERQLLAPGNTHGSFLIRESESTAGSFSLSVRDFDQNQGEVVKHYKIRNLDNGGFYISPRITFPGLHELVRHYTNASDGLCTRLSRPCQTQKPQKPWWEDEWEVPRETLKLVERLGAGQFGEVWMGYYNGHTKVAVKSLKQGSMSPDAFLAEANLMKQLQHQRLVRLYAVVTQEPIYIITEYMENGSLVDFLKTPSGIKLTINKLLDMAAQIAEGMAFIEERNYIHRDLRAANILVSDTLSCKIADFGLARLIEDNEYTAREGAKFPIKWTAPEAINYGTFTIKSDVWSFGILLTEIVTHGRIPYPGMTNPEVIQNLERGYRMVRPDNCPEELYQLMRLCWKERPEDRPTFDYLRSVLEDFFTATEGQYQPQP

Row | SMILES | GI50 [1, 3] | IC50 [2, 4] [µM] | melting point | IC50 [2, 5] [µM] | GI50 [1, 6] | IC50 [2, 7] [µM] | IC50 [2, 8] [µM] | inhibition at 10 µM ([2]; Rattus norvegicus, Rat2, Table 3, at 10 μM, read-out: Src Cells IC50 μM or % inhib at 10 μM (% values)) [%] | Src Cells IC50 μM or % inhib at 10 μM (% values) ([2]; Table 3, at 10 μM)
1 | COc1cc(Nc2c(C#N)cnc3cc(Br)sc23)c(Cl)cc1Cl [Example 3, 2-Bromo-7-[(2,4-dichloro-5-methoxyphenyl)amino]-thieno[3,2-b]pyridine-6-carbonitrile] | 32000 nM | 37 | 228 to 229 °C |  |  |  |  |  | 
2 | COc1cc(Nc2c(C#N)cnc3cc(-c4ccc(CN5CCN(CCO)CC5)cc4)sc23)c(Cl)cc1Cl [Example 17, 7-[(2,4-Dichloro-5-methoxyphenyl)amino]-2-(4-{[4-(2-hydroxyethyl)piperazin-1-yl]methyl}phenyl)thieno[3,2-b]pyridine-6-carbonitrile] | 140 nM | 0.37 | 189 to 190 °C |  |  |  |  |  | 
3 | COc1cc(Nc2c(C#N)cnc3cc(-c4csc(CN5CCOCC5)c4)sc23)c(Cl)cc1Cl [Example 39, 7-[(2,4-Dichloro-5-methoxyphenyl)amino]-2-[5-(morpholin-4-ylmethyl)thien-3-yl]thieno[3,2-b]pyridine-6-carbonitrile] | 680 nM | 0.85 | 209 to 212 °C |  |  |  |  |  | 
4 | COc1cc(Nc2c(C#N)cnc3cc(-c4ccc(CN5CCN(C)CC5)cc4)sc23)cc(OC)c1OC [Example 58, 2-{4-[(4-Methylpiperazin-1-yl)methyl]phenyl}-7-[(3,4,5-trimethoxyphenyl)amino]thieno[3,2-b]pyridine-6-carbonitrile] | 48 nM | 0.165 | 189 to 191 °C | 0.245 |  |  |  |  | 
5 | COc1cc(Nc2c(C#N)cnc3cc(-c4cnc(CN5CCN(C)CC5)n4C)sc23)c(Cl)cc1Cl [Example 59, 7-[(2,4-Dichloro-5-methoxyphenyl)amino]-2-{1-methyl-2-[(4-methylpiperazin-1-yl)methyl]-1H-imidazol-5-yl}thieno[3,2-b]pyridine-6-carbonitrile] | 270 nM and 320 nM | 1.21 | 234 to 235 °C | 2.29 |  |  |  |  | 
6 | COc1cc(Nc2c(C#N)cnc3cc(-c4ccc(CN(C)C)cc4)sc23)cc(OC)c1OC [Example 61, 2-{4-[(Dimethylamino)methyl]phenyl}-7-[(3,4,5-trimethoxyphenyl)amino]thieno[3,2-b]pyridine-6-carbonitrile] | 17 nM and 15 nM and 14 nM | 0.217 | 199 to 201 °C | 0.279 |  |  |  |  | 
7 | COc1cc(Nc2c(C#N)cnc3cc(/C=C/c4ccccc4)sc23)c(Cl)cc1Cl [Example 64, 7-[(2,4-Dichloro-5-methoxyphenyl)amino]-2-[(E)-2-phenylvinyl]thieno[3,2-b]pyridine-6-carbonitrile] |  |  | 236 to 238 °C |  | 7400 nM and 7900 nM | 6.4 | 5.6 |  | 
8 | COc1cc(Nc2c(C#N)cnc3cc(/C=C/n4nccn4)sc23)c(Cl)cc1Cl [Example 66, 7-[(2,4-Dichloro-5-methoxyphenyl)amino]-2-[(E)-2-(2H-1,2,3-triazol-2-yl)vinyl]thieno[3,2-b]pyridine-6-carbonitrile] |  |  | 315 to 316 °C |  | > 10000 nM |  |  | 26 | 26%, 26%
9 | COc1cc(Nc2c(C#N)cnc3cc(-c4ccc(C5OCCO5)o4)sc23)c(Cl)cc1Cl [Example 68, 7-[(2,4-dichloro-5-methoxyphenyl)amino]-2-[5-(1,3-dioxolan-2-yl)-2-furyl]thieno[3,2-b]pyridine-6-carbonitrile] |  |  | 187 to 189 °C |  | 2800 nM and 3000 nM | 6.1 | 6 |  | 
10 | COc1cc(Nc2c(C#N)cnc3cc(-c4ccc(CN5CCN(C)CC5)o4)sc23)c(Cl)cc1Cl [Example 69, 7-[(2,4-dichloro-5-methoxyphenyl)amino]-2-{5-[(4-methylpiperazin-1-yl)methyl]-2-furyl}thieno[3,2-b]pyridine-6-carbonitrile] |  |  | 215 to 217 °C |  | 1900 nM and 2200 nM | 2.8 | 3.4 |  | 
11 | COc1cc(Nc2c(C#N)cnc3cc(-c4ccc(CN(C)C)o4)sc23)c(Cl)cc1Cl [Example 76, 7-[(2,4-dichloro-5-methoxyphenyl)amino]-2-{5-[(dimethylamino)methyl]-2-furyl}thieno[3,2-b]pyridine-6-carbonitrile] |  |  | 200 to 202 °C |  | 910 nM and 990 nM | 4.9 | 2.6 |  | 
12 | COc1cc(Nc2c(C#N)cnc3cc(-c4ccc(C5OCCO5)s4)sc23)c(Cl)cc1Cl [Example 77, 7-[(2,4-dichloro-5-methoxyphenyl)amino]-2-[5-(1,3-dioxolan-2-yl)thien-2-yl]thieno[3,2-b]pyridine-6-carbonitrile] |  |  | 213 to 217 °C |  | 1900 nM and 1700 nM | 2.4 | 1.5 |  | 
13 | COc1cc(Nc2c(C#N)cnc3cc(-c4ccc(CN(C)C)s4)sc23)c(Cl)cc1Cl [Example 88, 7-[(2,4-dichloro-5-methoxyphenyl)amino]-2-{5-[(dimethylamino)methyl]thien-2-yl}thieno[3,2-b]pyridine-6-carbonitrile] |  |  | 210 to 212 °C |  | 160 nM and 250 nM | 2.4 | 2.3 |  | 
14 | COc1cc(Nc2c(C#N)cnc3cc(-c4ccc(CNCc5ccncc5)cc4)sc23)c(Cl)cc1Cl [Example 89, 7-[(2,4-dichloro-5-methoxyphenyl)amino]-2-(4-{[(pyridin-4-ylmethyl)amino]methyl}phenyl)thieno[3,2-b]pyridine-6-carbonitrile] |  |  | 128 to 130 °C |  | 1000 nM and 1060 nM | 1.5 | 1.21 |  | 
15 | COc1cc(Nc2c(C#N)cnc3cc(C#Cc4ccc(CN(C)C)cn4)sc23)c(Cl)cc1Cl [Example 100, 7-[(2,4-dichloro-5-methoxyphenyl)amino]-2-({5-[(dimethylamino)methyl]pyridin-2-yl}ethynyl)thieno[3,2-b]pyridine-6-carbonitrile] |  |  | 215 to 217 °C |  | 3340 nM and 1930 nM | > 10 |  |  | 
16 | COc1cc(Nc2c(C#N)cnc3cc(-c4ccc(N5CCOCC5)nc4)sc23)c(Cl)cc1Cl [Example 109, 7-[(2,4-dichloro-5-methoxyphenyl)amino]-2-(6-morpholin-4-ylpyridin-3-yl)thieno[3,2-b]pyridine-6-carbonitrile] |  |  | 225 to 227 °C |  | 4500 nM | > 10 |  |  | 
17 | COc1cc(Nc2c(C#N)cnc3cc(-c4ccc(CN5CCN(c6ccccn6)CC5)cc4)sc23)c(Cl)cc1Cl [Example 112, 7-[(2,4-dichloro-5-methoxyphenyl)amino]-2-{4-[(4-pyridin-2-ylpiperazin-1-yl)methyl]phenyl}thieno[3,2-b]pyridine-6-carbonitrile] |  |  | 245 to 247 °C |  | > 10000 nM | > 10 | 5.78 |  | 
18 | CCN(CC)Cc1ccc(-c2cc3ncc(C#N)c(Nc4cc(OC)c(Cl)cc4Cl)c3s2)nc1 [Example 133, 7-[(2,4-dichloro-5-methoxyphenyl)amino]-2-{5-[(diethylamino)methyl]pyridin-2-yl}thieno[3,2-b]pyridine-6-carbonitrile] |  |  | 192 to 193 °C |  | 82 nM and 97 nM | 0.436 | 0.289 |  | 
19 | COc1cc(Nc2c(C#N)cnc3cc(-c4coc(CN5CCN(C)CC5)c4)sc23)c(Cl)cc1Cl [Example 137, 7-[(2,4-dichloro-5-methoxyphenyl)amino]-2-{5-[(4-methylpiperazin-1-yl)methyl]-3-furyl}thieno[3,2-b]pyridine-6-carbonitrile] |  |  | 189 to 192 °C |  | 67 nM and 53 nM | 0.303 | 0.211 |  | 
20 | COc1cc(Nc2c(C#N)cnc3c(-c4ccc(C=O)cc4)csc23)c(Cl)cc1Cl [Example 140, 7-[(2,4-Dichloro-5-methoxyphenyl)amino]-3-(4-formylphenyl)thieno[3,2-b]pyridine-6-carbonitrile] |  |  | 268 °C (dec.) |  | > 10000 nM | 8.46 | 8.58 |  | 

Reference: US7276519B2, “Thieno[3,2-b]pyridine-6-carbonitriles and thieno[2,3-b]pyridine-5-carbonitriles as protein kinase inhibitors” (Wyeth, priority 2002, dated 2007)
